# Test results taken from the supplement of paper PMC10307832.
# Tests used:
# Test in all cases: relative viability (nuclei count vs DMSO), 5 days (fraction); higher = more cells survive
# [1] = compound: N[C@@H]1CCCN(c2c(/C=C3\SC(=O)NC3=O)cccc2-c2ccccc2)C1 [AZD1208] + CC(=O)Nc1cccc(-n2c(=O)n(C3CC3)c(=O)c3c(Nc4ccc(I)cc4F)n(C)c(=O)c(C)c32)c1 [Trametinib] (partner 0.02 µM)
# Summary of the method: (§1)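 Relative viability is defined as nuclei in treated wells over nuclei in vehicle wells. Duplicate plates were run and medians reported. Lung cancer cell lines in 1536-well plates were dosed by pin tool one day after seeding, with one drug or with a fixed anchor-drug dose plus five library-drug doses (not always all listed) in √10 steps, and nuclei were counted after 5 days.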
# [2] = compound: N[C@@H]1CCCN(c2c(/C=C3\SC(=O)NC3=O)cccc2-c2ccccc2)C1 [AZD1208] + CS(=O)(=O)N1CCN(Cc2cc3nc(-c4cccc5[nH]ncc45)nc(N4CCOCC4)c3s2)CC1 [Pictilisib] (partner 1 µM)
# Summary of the method: as §1
# [3] = compound: CN1CCN(CC1)C2=CC(=C(C=C2)NC3=NC(=C(S3)C(=O)C4=C(C=CC=C4Cl)Cl)N)OC [XMD14-99] + C[C@@H](Oc1cc(-c2cnn(C3CCNCC3)c2)cnc1N)c1c(Cl)ccc(F)c1Cl [Crizotinib] (partner 1 µM)
# Summary of the method: as §1
# [4] = compound: CN1CCN(CC1)C2=CC(=C(C=C2)NC3=NC(=C(S3)C(=O)C4=C(C=CC=C4Cl)Cl)N)OC [XMD14-99] + COc1cc2c(Oc3ccc(NC(=O)C4(C(=O)Nc5ccc(F)cc5)CC4)cc3F)ccnc2cc1OCCCN1CCOCC1 [Foretinib] (partner 0.25 µM)
# Summary of the method: as §1
cell line,measurement,setting,value
NCI-H522,relative viability,[1]; first compound 0.08 µM,0.686
same,relative viability,[1]; first compound 0.253 µM,0.663
same,relative viability,[1]; first compound 0.8 µM,0.55
same,relative viability,[1]; first compound 2.53 µM,0.635
same,relative viability,[1]; first compound 8 µM,0.677
HCC-15,relative viability,[1]; first compound 0.08 µM,0.381
same,relative viability,[1]; first compound 0.253 µM,0.338
same,relative viability,[1]; first compound 0.8 µM,0.326
same,relative viability,[1]; first compound 2.53 µM,0.312
same,relative viability,[1]; first compound 8 µM,0.296
same,relative viability,[2]; first compound 0.08 µM,0.611
same,relative viability,[2]; first compound 0.253 µM,0.679
same,relative viability,[2]; first compound 0.8 µM,0.524
same,relative viability,[2]; first compound 2.53 µM,0.548
same,relative viability,[2]; first compound 8 µM,0.515
same,relative viability,[3]; first compound 0.08 µM,0.773
same,relative viability,[3]; first compound 0.8 µM,0.816
same,relative viability,[3]; first compound 2.53 µM,0.807
same,relative viability,[3]; first compound 8 µM,0.605
same,relative viability,[4]; first compound 0.08 µM,1.01
same,relative viability,[4]; first compound 0.8 µM,1.01
same,relative viability,[4]; first compound 2.53 µM,0.9
same,relative viability,[4]; first compound 8 µM,0.693
A-427,relative viability,[1]; first compound 0.08 µM,0.622
same,relative viability,[1]; first compound 0.253 µM,0.71
same,relative viability,[1]; first compound 0.8 µM,0.6
same,relative viability,[1]; first compound 2.53 µM,0.619
same,relative viability,[1]; first compound 8 µM,0.537
same,relative viability,[2]; first compound 0.08 µM,0.673
same,relative viability,[2]; first compound 0.253 µM,0.664
same,relative viability,[2]; first compound 0.8 µM,0.597
same,relative viability,[2]; first compound 2.53 µM,0.74
same,relative viability,[2]; first compound 8 µM,0.533
same,relative viability,[3]; first compound 0.08 µM,0.83
same,relative viability,[3]; first compound 0.8 µM,0.746
same,relative viability,[3]; first compound 2.53 µM,0.614
same,relative viability,[3]; first compound 8 µM,0.658
same,relative viability,[4]; first compound 0.08 µM,1.04
same,relative viability,[4]; first compound 0.8 µM,0.988
same,relative viability,[4]; first compound 2.53 µM,0.814
same,relative viability,[4]; first compound 8 µM,0.712
NCI-H23,relative viability,[1]; first compound 0.08 µM,0.361
same,relative viability,[1]; first compound 0.253 µM,0.301
same,relative viability,[1]; first compound 0.8 µM,0.272
same,relative viability,[1]; first compound 2.53 µM,0.347
same,relative viability,[1]; first compound 8 µM,0.303
same,relative viability,[2]; first compound 0.08 µM,0.413
same,relative viability,[2]; first compound 0.253 µM,0.561
same,relative viability,[2]; first compound 0.8 µM,0.327
same,relative viability,[2]; first compound 2.53 µM,0.358
same,relative viability,[2]; first compound 8 µM,0.335
same,relative viability,[3]; first compound 0.08 µM,0.45
same,relative viability,[3]; first compound 0.8 µM,0.447
same,relative viability,[3]; first compound 2.53 µM,0.461
same,relative viability,[3]; first compound 8 µM,0.351
same,relative viability,[4]; first compound 0.08 µM,0.908
same,relative viability,[4]; first compound 0.8 µM,0.981
same,relative viability,[4]; first compound 2.53 µM,0.843
same,relative viability,[4]; first compound 8 µM,0.821
NCI-H1734,relative viability,[1]; first compound 0.08 µM,0.659
same,relative viability,[1]; first compound 0.253 µM,0.583
same,relative viability,[1]; first compound 0.8 µM,0.535
same,relative viability,[1]; first compound 2.53 µM,0.525
same,relative viability,[1]; first compound 8 µM,0.434
same,relative viability,[2]; first compound 0.08 µM,0.393
same,relative viability,[2]; first compound 0.253 µM,0.373
same,relative viability,[2]; first compound 0.8 µM,0.347
same,relative viability,[2]; first compound 2.53 µM,0.343
same,relative viability,[2]; first compound 8 µM,0.293
same,relative viability,[3]; first compound 0.08 µM,0.634
same,relative viability,[3]; first compound 0.8 µM,0.713
same,relative viability,[3]; first compound 2.53 µM,0.618
same,relative viability,[3]; first compound 8 µM,0.638
same,relative viability,[4]; first compound 0.08 µM,0.821
same,relative viability,[4]; first compound 0.8 µM,0.826
same,relative viability,[4]; first compound 2.53 µM,0.793
same,relative viability,[4]; first compound 8 µM,0.7
NCI-H1993,relative viability,[1]; first compound 0.08 µM,0.496
same,relative viability,[1]; first compound 0.253 µM,0.515
same,relative viability,[1]; first compound 0.8 µM,0.447
same,relative viability,[1]; first compound 2.53 µM,0.477
same,relative viability,[1]; first compound 8 µM,0.376
same,relative viability,[2]; first compound 0.253 µM,0.878
same,relative viability,[2]; first compound 0.8 µM,0.692
same,relative viability,[2]; first compound 2.53 µM,0.807
same,relative viability,[2]; first compound 8 µM,0.869
same,relative viability,[3]; first compound 0.08 µM,0.952
same,relative viability,[3]; first compound 0.8 µM,0.847
same,relative viability,[3]; first compound 2.53 µM,0.792
same,relative viability,[3]; first compound 8 µM,0.68
same,relative viability,[4]; first compound 0.08 µM,0.804
same,relative viability,[4]; first compound 0.8 µM,0.674
same,relative viability,[4]; first compound 2.53 µM,0.643
same,relative viability,[4]; first compound 8 µM,0.595
PC-3 [JPC-3],relative viability,[1]; first compound 0.08 µM,0.732
same,relative viability,[1]; first compound 0.253 µM,0.825
same,relative viability,[1]; first compound 0.8 µM,0.688
same,relative viability,[1]; first compound 2.53 µM,0.711
same,relative viability,[1]; first compound 8 µM,0.723
same,relative viability,[2]; first compound 0.08 µM,0.788
same,relative viability,[2]; first compound 0.253 µM,0.762
same,relative viability,[2]; first compound 0.8 µM,0.672
same,relative viability,[2]; first compound 2.53 µM,0.659
same,relative viability,[2]; first compound 8 µM,0.684
same,relative viability,[3]; first compound 0.08 µM,1.05
same,relative viability,[3]; first compound 0.8 µM,0.955
same,relative viability,[3]; first compound 2.53 µM,0.916
same,relative viability,[3]; first compound 8 µM,0.781
same,relative viability,[4]; first compound 0.08 µM,1.06
same,relative viability,[4]; first compound 0.8 µM,0.957
same,relative viability,[4]; first compound 2.53 µM,0.858
same,relative viability,[4]; first compound 8 µM,0.762
NCI-H1915,relative viability,[1]; first compound 0.08 µM,0.271
same,relative viability,[1]; first compound 0.253 µM,0.288
same,relative viability,[1]; first compound 0.8 µM,0.247
same,relative viability,[1]; first compound 2.53 µM,0.277
same,relative viability,[1]; first compound 8 µM,0.232
same,relative viability,[2]; first compound 0.08 µM,0.874
same,relative viability,[2]; first compound 0.253 µM,0.899
same,relative viability,[2]; first compound 0.8 µM,0.832
same,relative viability,[2]; first compound 2.53 µM,0.849
same,relative viability,[2]; first compound 8 µM,0.84
same,relative viability,[3]; first compound 0.08 µM,1.02
same,relative viability,[3]; first compound 0.8 µM,0.877
same,relative viability,[3]; first compound 2.53 µM,0.812
same,relative viability,[3]; first compound 8 µM,0.805
same,relative viability,[4]; first compound 0.08 µM,1.06
same,relative viability,[4]; first compound 0.8 µM,1.02
same,relative viability,[4]; first compound 2.53 µM,0.961
same,relative viability,[4]; first compound 8 µM,0.859
NCI-H1666,relative viability,[1]; first compound 0.08 µM,0.764
same,relative viability,[1]; first compound 0.253 µM,0.907
same,relative viability,[1]; first compound 0.8 µM,0.687
same,relative viability,[1]; first compound 2.53 µM,0.667
same,relative viability,[1]; first compound 8 µM,0.725
same,relative viability,[2]; first compound 0.08 µM,0.359
same,relative viability,[2]; first compound 0.253 µM,0.553
same,relative viability,[2]; first compound 0.8 µM,0.353
same,relative viability,[2]; first compound 2.53 µM,0.309
same,relative viability,[2]; first compound 8 µM,0.374
same,relative viability,[3]; first compound 0.08 µM,0.926
same,relative viability,[3]; first compound 0.8 µM,0.899
same,relative viability,[3]; first compound 2.53 µM,0.779
same,relative viability,[3]; first compound 8 µM,0.575
same,relative viability,[4]; first compound 0.08 µM,1.02
same,relative viability,[4]; first compound 0.8 µM,0.859
same,relative viability,[4]; first compound 2.53 µM,0.866
same,relative viability,[4]; first compound 8 µM,0.712
